According to US20100056524A1, “Compound” (priority 2008, published 2010):
Counter-ions that a name gives are not always drawn. Like-named read-outs stand apart in the source and are kept apart here.

Legend:
TBK1 = target: T1, TBK1 (Homo sapiens, UniProt Q9UHD2); experiment: TBK1 protein kinase assay ([γ-33P]ATP, P81 filterplates); type: biochemical
T1 construct: All protein kinases were of human origin and encoded full length proteins, unless indicated otherwise; His6; made in house; host or cells: insect Sf21 cells
T1 sequence (Q9UHD2 1-729): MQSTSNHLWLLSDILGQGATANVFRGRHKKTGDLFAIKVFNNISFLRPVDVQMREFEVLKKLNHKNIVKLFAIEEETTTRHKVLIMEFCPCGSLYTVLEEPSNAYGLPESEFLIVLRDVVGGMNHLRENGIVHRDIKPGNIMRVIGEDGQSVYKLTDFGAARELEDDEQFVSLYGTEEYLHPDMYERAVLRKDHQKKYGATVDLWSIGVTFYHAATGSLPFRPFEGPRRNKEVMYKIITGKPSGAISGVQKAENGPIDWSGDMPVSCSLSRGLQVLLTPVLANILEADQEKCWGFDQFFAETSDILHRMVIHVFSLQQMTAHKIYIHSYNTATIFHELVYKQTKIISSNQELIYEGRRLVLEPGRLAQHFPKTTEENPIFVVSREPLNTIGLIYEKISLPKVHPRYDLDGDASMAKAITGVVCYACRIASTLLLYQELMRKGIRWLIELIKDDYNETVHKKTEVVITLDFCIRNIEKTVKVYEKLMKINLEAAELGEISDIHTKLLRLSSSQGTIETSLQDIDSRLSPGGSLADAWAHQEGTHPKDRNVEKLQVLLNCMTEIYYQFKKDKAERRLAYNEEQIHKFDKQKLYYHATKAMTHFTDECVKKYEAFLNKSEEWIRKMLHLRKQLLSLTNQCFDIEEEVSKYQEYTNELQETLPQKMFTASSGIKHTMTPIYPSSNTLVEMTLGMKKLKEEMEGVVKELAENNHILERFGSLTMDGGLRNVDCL
Procedure, shortened: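 Human TBK1 assayed for 30 min with peptide substrate (300 μM), 50 μM [γ-33P]ATP and 10 mM magnesium acetate in 50 mM Tris/HCl pH 7.5, 0.1 mM EGTA, 0.1% 2-mercaptoethanol. Stopped with orthophosphoric acid and counted on P81 filters. IC50 from 10 compound concentrations.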

ERK8 = target: T2, ERK8 (Homo sapiens, UniProt Q8TD08); experiment: ERK8 protein kinase assay; type: biochemical; conditions: for remaining activity at 10 µM: 10 μM compound; for residual kinase activity ERK8: 1 μm compound; for remaining activity at 1 µM: 1 μM compound
T2 construct: All protein kinases were of human origin and encoded full length proteins, unless indicated otherwise; His6; made in house; host or cells: insect Sf21 cells
T2 sequence (Q8TD08 1-544): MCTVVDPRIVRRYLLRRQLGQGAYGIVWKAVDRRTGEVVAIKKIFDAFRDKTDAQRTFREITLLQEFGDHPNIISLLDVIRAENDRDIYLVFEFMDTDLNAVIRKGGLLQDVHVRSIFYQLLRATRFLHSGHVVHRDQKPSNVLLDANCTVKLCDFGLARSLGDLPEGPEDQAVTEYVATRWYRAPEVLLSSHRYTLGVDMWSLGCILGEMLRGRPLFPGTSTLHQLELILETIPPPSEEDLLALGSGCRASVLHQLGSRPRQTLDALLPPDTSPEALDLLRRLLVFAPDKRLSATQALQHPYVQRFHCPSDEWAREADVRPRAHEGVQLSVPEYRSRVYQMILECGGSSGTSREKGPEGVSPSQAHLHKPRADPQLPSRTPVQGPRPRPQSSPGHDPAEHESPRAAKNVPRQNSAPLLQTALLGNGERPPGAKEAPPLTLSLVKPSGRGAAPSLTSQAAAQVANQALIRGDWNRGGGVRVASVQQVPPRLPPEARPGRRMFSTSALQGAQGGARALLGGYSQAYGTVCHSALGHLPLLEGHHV
Source text: All protein kinases were of human origin and encoded full length proteins, unless indicated otherwise. They were either expressed as glutathione S-transferase (GST) fusion proteins in Escherichia Coli or as hexahistidine (His6)-tagged proteins in insect Sf21 cells. GST fusion proteins were purified by affinity chromatography on glutathione-Sepharose, and His6-tagged proteins on nickel/nitriloacetate-agarose. The procedures for expressing some of the protein kinases used herein have been detailed previously.^8,9 The following sections outline the DNA vectors synthesised and the procedures used to express and purifying protein kinases that have not been reported previously.
The following kinases were expressed in Sf21 cells: Aurora B and Aurora C, extra-cellular signal-regulated kinase 8 (ERK8), microtubule affinity regulating kinase 3 (MARK3), protein kinase Bα[118-480][S473D], protein kinase Bβ (PKBβ[120-481][S474D], 3-phosphoinositide-dependent protein kinase-1 [52-556]
All assays (25.5 μl) were carried out at room temperature (21° C.) and were linear with respect to time and enzyme concentration under the conditions used. Assays were performed for 30 min using Multidrop Micro reagent dispensers (Thermo Electron Corporation, Waltham, Mass. 02454, USA) in a 96-well format. The concentration of magnesium acetate in the assays was 10 mM and the [γ-33P] ATP (800 cpm/pmol) was used at 5, 20 or 50 μM as indicated, in order to be at or below the Km for ATP for each enzyme. Protein kinases assayed at 5 μM ATP were: —ERK1, ERK8, PKBα, MARK3, Aurora C. Protein kinases assayed at 20 μM ATP were: —JNK1, PDK1, CHK1, CHK2, CDK2 and Aurora B. Protein kinases assayed at 50 μM ATP were: —MNK2, IKKepsilon and TBK1.
The assays were initiated with MgATP, stopped by addition of 5 μl of 0.5 M orthophosphoric acid and spotted on to P81 filterplates using a unifilter harvester (PerkinElmer, Boston, Mass. 02118, USA). The IC50 values of inhibitors were determined after carrying out assays at 10 different concentrations of each compound.
ERK1 and ERK8 were both assayed against myelin basic protein (MBP, 0.33 mg/ml). MARK3 was assayed against the peptide […] (300 μM), MNK2 against the eIF4E protein (0.5 mg/ml). PKBβ was assayed against the peptide […] (30 μM). TBK1 were assayed against ([…]) (300 μM). The substrates used for other protein kinases were described previously.^8,9
Unless stated otherwise, enzymes were diluted in 50 mM Tris/HCl pH 7.5, 0.1 mM EGTA, 1 mg/ml BSA, 0.1% (v/v) 2-mercaptoethanol and assayed in 50 mM Tris/HCl pH 7.5, 0.1 mM EGTA, 0.1% (v/v) 2-mercaptoethanol.

[1] = read-out: residual kinase activity ERK8
[2] = 50 μM ATP, read-out: Potency (TBK1 IC50 potency score)
[3] = Table 2, 50 μM ATP, read-out: TBK1 IC50
[4] = ERK8, 5 μM ATP, read-out: residual kinase activity

Structure (SMILES)	IC50 (TBK1; read-out: TBK1 IC50)	remaining activity at 10 µM (ERK8; [1])	residual kinase activity ERK8 (ERK8)	IC50 (TBK1; [2])	IC50 (TBK1; [3])	IC50 (TBK1; Table 5, 50 μM ATP, read-out: TBK1 IC50)	fold more active against TBK1 than Compound B or Compound C (TBK1; from TBK1 IC50 values of Table 5)	remaining activity at 1 µM (ERK8; [4])	remaining activity at 10 µM (ERK8; [4])
O=C(NCCCNc1nc(Nc2cccc(F)c2)ncc1Br)C1CCC1 [Compound A, cyclobutanecarboxylic acid {3-[5-bromo-2-(3-fluoro-phenylamino)-pyrimidin-4-ylamino]-propyl}-amide, reference compound]	2 nM	3%	9%	–	–	–	–	–	–
O=C(NCCCNc1nc(Nc2cccc(F)c2)ncc1C1CC1)C1CCC1 [Example 23, Cyclobutanecarboxylic acid {3-[5-cyclopropyl-2-(3-fluoro-phenylamino)-pyrimidin-4-ylamino]-propyl}-amide]	4 nM	6%	14%	< 100 nM	4 nM	4 nM	> 250 fold	14%	6%
O=C(NCCCNc1nc(Nc2cccc(N3CCCC3=O)c2)ncc1C1CC1)c1cccs1 [Example 47, Thiophene-2-carboxylic acid (3-{5-cyclopropyl-2-[3-(2-oxo-pyrrolidin-1-yl)-phenylamino]-pyrimidin-4-ylamino}-propyl)-amide. Hydrochloride salt]	–	–	–	–	–	–	–	33%	10%
O=C(NCCCNc1nc(Nc2cccnc2)ncc1C1CC1)c1cccs1 [Example 50, Thiophene-2-carboxylic acid {3-[5-cyclopropyl-2-(pyridin-3-ylamino)-pyrimidin-4-ylamino]-propyl}-amide]	–	–	–	100 to 1000 nM	108 nM	–	–	13%	5%
